In brackets after ≈: the same amount, converted by molar mass. Entries after “also recorded” stand apart in the source; their conditions may differ.
Experiments:
[1] = system: S. aureus strains ATCC13709 and RN4220; test: microbe, parasite or virus in culture; assay type: cell-based; conditions: Staphylococcus aureus, ATCC13709; CAMHB, 37° C., 18 h; data not shown; read-out: minimum inhibitory concentration (MIC)
Description: Susceptibility of S. aureus strains ATCC13709 and RN4220 to the commercial antibiotics and synthesized compounds was determined by following the guidelines set by the Clinical and Laboratory Standards Institute (formerly the National Committee for Clinical Laboratory Standards) (M26-A). Compounds were diluted two-fold serially in DMSO and transferred to cation-adjusted Mueller Hinton broth (CAMHB; Becton Dickinson). 50 μL of compounds diluted in CAMHB was mixed with 100 μL of bacteria diluted in CAMHB in 96-well microtiter plates. The final number of micro-organisms in the assay was 5×10^5 c.f.u. per mL and the final concentration of DMSO in the assay was 1.25%. Assays were set up in duplicate and incubated at 37° C. for 18 h. The concentration of compound that inhibited visible growth was reported as the minimum inhibitory concentration (MIC).

[2] = Bone powder binding, fluorometric detection; conditions: for Binding to bone (%) Fluorescence: 1 mg/ml compound, bone meal powder 10 mg/ml in PBS, 37° C., 1 h
Description: The ability of the example molecules to bind to bone powder was established in two parallel fashions, using either LC/MS or fluorometric detection. For LC/MS detection, a stock solution (5 mM) of the compound to be tested was added to 0.1M Tris-HCl buffer pH 7, 0.15M NaCl to reach a final concentration of 100 μM. Triplicate samples (1 mL) of the compound solutions were intensively shaken for 10 min with or without 25 mg of fresh or 20 mg of vacuum dried ground rat tibia bone. The samples were then centrifuged for 15 min at 10 000 g. The presence of unbound compound was measured by injection of 30 μL of each of the supernatants into an Agilent 1100™ LC/UV system. For fluorometric detection, an individual compound was dissolved in PBS or water (compound 52) and resuspended at a concentration of 1 mg/ml in a slurry of bone meal powder (Now Foods, Bloomingdale, Ill., USA) in PBS at 10 mg/ml. The suspension of drug/prodrug in bone meal powder was incubated at 37° C. for 1 h to allow for binding, and centrifuged at 13 000 rpm for 2 min, before recovering the supernatant. The bone meal powder pellet was then washed three times with 1 ml of PBS. All supernatants were saved and assessed for fluoroquinolone content by fluorescence measurements at excitation/emission wavelengths of 280/465 nm. The amount of fluoroquinolone was determined from standard curves generated for each experiment. Amount of drug/prodrug bound to bone powder was deduced from the difference between the input amount (typically 1 mg) and the amount recovered in the supernatants after binding. In all binding experiments, >99% of input drug was recovered in the supernatant for the parent drugs.

S. aureus ATCC 13709 = test: Prophylactic model of bone infection in rats; assay type: in vivo, rat; conditions: for bacterial titer compared with untreated group: 10 mg/kg IV 1 h after infection (positive control); for prophylactic effect in rat model of bone infection, in words: Table 4 and FIGS. 6-8, doses as in Table 4
Description: To determine the activity in vivo of bisphosphonated prodrugs of fluoroquinolones, compounds 52 and 107, derivatives of parent compounds moxifloxacin 3 (for 52), and compounds 39, 44, 49, 54, 121, 129, 141, 145, 149, derivatives of parent compound gatifloxacin 15, were used in a prophylactic model for infection. Specifically, S. aureus ATCC 13709 cells were grown overnight at 37° C. in brain heart infusion broth (BHIB). Cells were subcultured into fresh BHIB and incubated for 4 to 5 h at 37° C. The cells were washed twice with phosphate-buffered saline (PBS) and resuspended in BHIB supplemented with 10% (vol./vol.) fetal bovine serum at a density of approximately 10^10 colony forming units (CFU)/ml (based upon turbidimetry). The suspension was aliquoted and a portion was used to check the CFU count. The culture was stored frozen (−80° C.) and was used without subculture. For use as an inoculum the culture was thawed, diluted in PBS and kept in an ice bath until it was used.
Animals were infected as described by O'Reilly et al. (Antimicrobial Agents and Chemotherapy (1992), 36(12): 2693-97) to generate the bone infection. Female CD rats (age, 57 to 70 days; n=5/group; Charles River, St-Constant, Canada) were anaesthetized by isofluorane before and during the surgery. Following complete induction of anesthesia, the rat was placed ventral side up and hair was shaved from the surgical site. The skin over the leg was cleaned and disinfected (proviodine-ethanol 70%). A longitudinal incision below the knee joint was made in the sagital plane. The incision was made over the bone below the “knee joint” (tibia head or condyle) but not completely extending to the ankle. A high speed drill fitted with a 2 mm bulb bit was used to drill a hole into the medullar cavity of the tibia. Rats were injected intra-tibially with 0.05 ml 5% sodium morrhuate (sclerosing agent) and then with 0.05 ml of S. aureus suspension (ca. 5×10^5 CFU/rat). The hole was sealed by applying a small amount of dry dental cement which immediately absorbs fluids and adheres to the site. The wound was closed using 3 metal skin clips. Moxifloxacin 3 (as a positive control) was injected once at 10 mg/kg intravenously 1 h postinfection in saline, while the fluoroquinolone prodrugs (prepared in 0.9% saline) were injected as a single intravenous bolus dose at different time points prior to the infection. For comparison, the parent drug (moxifloxacin 3 or gatifloxacin 15) was also injected intravenously once at a molar equivalent dose at the same time point prior the infection.
Infected rats were sacrificed by CO2 asphyxiation 24 h postinfection to monitor the bacterial CFU count. Infected tibiae were removed, dissected free of soft tissue, and weighed. The bones were ground using a metal ball mill, resuspended in 5 ml 0.9% NaCl, serially diluted and processed for quantitative cultures. For compounds 39, 44, 49, 54, 141, 145, 149, 1 ml of the 0.9% NaCl solution was added to 50 mg of charcoal before serial dilutions. Treatment efficacies were measured in terms of Log viable bacteria (Log CFU per gram of bone). The results obtained for each group of rats were evaluated by calculating the mean Log CFU and standard deviation. The limit of detection is 2 Log CFU/g of bone. Statistical comparisons of viable bacterial counts for the different treated and untreated groups were performed with Dunnett's multiple-comparison test. Differences were considered significant when the P value was <0.05 when comparing treated infected animals to the untreated infected ones.

Hela cells = test: Cytotoxicity assay (MTS reduction); assay type: cell-based; conditions: concentrations up to 100 μM, 18 h, MTS reagent; data not shown
Description: Selected compounds were also tested for their ability to inhibit growth of mammalian cells so as to ascertain levels of cytotoxicity to the mammalian host, via an assay measuring the biological reduction of the inner salt of (3-(4,5-dimethylthiazol-2-yl)-5-(3-carboxymethoxyphenyl)-2-(4-sulfophenyl)-2H-tetrazolium (MTS reagent). Assays were performed in 96-well microtiter plates. Briefly, compounds at 100, 50, 25, and 12.5 μM concentrations were incubated with 2×10^4 Hela cells per well in Dulbecco's Modified Eagle Medium (Invitrogen Corporation) containing 1% Bovine Growth Serum (HyClone) for 18 h at 37° C. under 5% CO2.

[3] = Regeneration of drug from bone powder-bound prodrug; assay type: in vitro ADME; conditions: for drug released from the bone matter after 24 h, in words / drug released from the bone matter after 7 days of incubation, in words: medium not stated; for effect of the medium (presence or absence of serum) on regeneration rate: PBS vs serum
Description: Amounts of drug “regenerated” from the phosphonated parent prodrug were measured as follows. Washed bone powder-bound prodrugs from the above section were resuspended in 400 μL PBS or in 400 μL 50% (v/v in PBS) human or rat serum. […] Methanol (5× volume relative to supernatant) was added to each supernatant and the mixture was vortexed on a floor model vortex for 15 min to extract freed fluoroquinolone. The mixture was then centrifuged at 10 000 rpm for 15 min to pellet the insoluble material. The supernatant containing the extracted fluoroquinolone was recovered and evaporated to dryness in a speed vac. The dried pellets were resuspended in PBS and the amount of fluoroquinolone was determined by fluorescence measurements as described above. The percentage of drug regenerated was deduced from the difference between amount of bound prodrug and the amount of regenerated drug. The identity of regenerated drug was deduced by MIC determination; MICs of regenerated material matched those of parent drugs but not those of prodrugs.

[4] = 20 mg/kg IV, 3 days prior to infection

SMILES	MIC [1] [µg/mL]	Binding to bone (%) Fluorescence [2] [%]	cytotoxicity (Hela cells)	effect of the medium (presence or absence of serum) on regeneration rate [3]	prophylactic effect in rat model of bone infection, in words (S. aureus ATCC 13709)	other results
COc1c(N2C[C@@H]3CCCN[C@@H]3C2)c(F)cc2c(=O)c(C(=O)O)cn(C3CC3)c12 [Compound 3, Moxifloxacin, reference compound]	0.5 to 1 (≈ 1.25 to 2.49 µM)	0				bacterial titer compared with untreated group (S. aureus ATCC 13709): significant decrease in the bacterial titer; bacterial titer compared with untreated group (S. aureus ATCC 13709; listed as moxifloxacin 3): significant (p<0.05) decrease in bacterial titer; also recorded: significant (p-value ≦0.0002) decrease in bacterial titer; prophylaxis by the parent drug, in words (S. aureus ATCC 13709; used five or two days prior to infection): unable to exhibit such efficient prophylaxis
COc1c(N2C[C@@H]3CCCN(CC(P(=O)(O)O)P(=O)(O)O)[C@@H]3C2)c(F)cc2c(=O)c(C(=O)O)cn(C3CC3)c12 [Compound 5, 7-((4aS,7aS)-1-(2,2-bisphosphonoethyl)-octahydropyrrolo[3,4-b]pyridin-6-yl)-1-cyclopropyl-6-fluoro-1,4-dihydro-8-methoxy-4-oxoquinoline-3-carboxylic acid]		92.2	no signs of any cytotoxicity			drug released from the bone matter after 24 h, in words [3]: not measurable amount of drug released; drug released from the bone matter after 7 days of incubation, in words [3]: only trace amounts
O=C(O)c1cn(C2CC2)c2cc(N3CCN(CC(P(=O)(O)O)P(=O)(O)O)CC3)c(F)cc2c1=O [Compound 8, 7-(4-(2,2-bisphosphonoethyl)piperazin-1-yl)-1-cyclopropyl-6-fluoro-1,4-dihydro-4-oxoquinoline-3-carboxylic acid]		99.6	no signs of any cytotoxicity			drug released from the bone matter after 24 h, in words [3]: not measurable amount of drug released
COc1c(N2C[C@@H]3CCCN[C@@H]3C2)c(F)cc2c(=O)c(C(=O)OCCCC(P(=O)(O)O)P(=O)(O)O)cn(C3CC3)c12 [Compound 14, 4,4-bisphosphonobutyl 7-((4aS,7aS)-octahydropyrrolo[3,4-b]pyridin-6-yl)-1-cyclopropyl-6-fluoro-1,4-dihydro-8-methoxy-4-oxoquinoline-3-carboxylate]		93.8	no signs of any cytotoxicity			drug released from the bone matter after 7 days of incubation, in words [3]: signs of drug release
COc1c(N2CCNC(C)C2)c(F)cc2c(=O)c(C(=O)O)cn(C3CC3)c12 (stereo not shown) [Compound 15, Gatifloxacin, reference compound]	0.5 to 1 (≈ 1.33 to 2.66 µM)	0				prophylactic effect on bacterial titer (S. aureus ATCC 13709; 10 mg/Kg (equivalent dose) 48 h prior to infection (FIG. 8)): without effect
COc1c(N2CCN(C(=O)OC(C)OC(=O)CCCC(=O)NC(P(=O)(O)O)P(=O)(O)O)C(C)C2)c(F)cc2c(=O)c(C(=O)O)cn(C3CC3)c12 (stereo not shown) [Compound 39]		94.3	no signs of any cytotoxicity	fairly similar rates	unable to produce a positive result in vivo	Measured bacterial titer (Log CFU/g of bone) Test compound (S. aureus ATCC 13709; [4]): 4.63 ± 0.39 Log CFU/g of bone
COc1c(N2CCN(C(=O)OC(C)OC(=O)CCCC(P(=O)(O)O)P(=O)(O)O)C(C)C2)c(F)cc2c(=O)c(C(=O)O)cn(C3CC3)c12 (stereo not shown) [Compound 44]	1 to 8 (≈ 1.41 to 11.3 µM)	88.4		fairly similar rates	unable to produce a positive result in vivo	Measured bacterial titer (Log CFU/g of bone) Test compound (S. aureus ATCC 13709; [4]): 4.72 ± 0.83 Log CFU/g of bone
COc1c(N2CCNC(C)C2)c(F)cc2c(=O)c(C(=O)OCC(=O)Nc3ccc(CC(P(=O)(O)O)P(=O)(O)O)cc3)cn(C3CC3)c12 (stereo not shown) [Compound 64, (4-(2,2-Bisphosphonoethyl)phenylcarbamoyl)methyl 7-(3-methylpiperazin-1-yl)-1-cyclopropyl-6-fluoro-1,4-dihydro-8-methoxy-4-oxoquinoline-3-carboxylate]		88.9	no signs of any cytotoxicity	fairly similar rates		
COc1c(N2CCN(C(=O)CC(C)(C)c3cc(P(=O)(O)CP(=O)(O)O)ccc3OC(C)=O)C(C)C2)c(F)cc2c(=O)c(C(=O)O)cn(C3CC3)c12 (stereo not shown) [Compound 141]	4 (≈ 5.32 µM)	36.6		fairly similar rates	efficient prophylactic effect	binding to osseous matter, in words ([2]; bisphosphonates bearing three hydroxy groups): less effectively bound; Measured bacterial titer (Log CFU/g of bone) Test compound (S. aureus ATCC 13709; 45.4 mg/kg IV, 2 days prior to infection): 2.40 ± 0.44 Log CFU/g of bone

Source: patent publication US20080287396A1, “Phosphonated Fluoroquinolones, Antibacterial Analogs Thereof, and Methods for the Prevention and Treatment of Bone and Joint Infections” (TARGANTA THERAPEUTICA INC., priority 2005, published 2008)
